Test results as given in ChEMBL document CHEMBL1201862, “PubChem BioAssay data set” (2004).
pIC50: −log10 of the molar value. The source made the active and inactive calls.

What was measured:
[1] = target: Polyadenylate-binding protein 1 (Homo sapiens, UniProt P11940); assay: PABP inhibition in translation initiation, SAR follow-up (AID 435018); type: functional
[2] = target: Eukaryotic translation initiation factor 4H (Homo sapiens, UniProt Q15056); assay: eIF4H inhibition in translation initiation, SAR follow-up (AID 435011); type: functional
[3] = target: Peroxisome proliferator-activated receptor gamma/Nuclear receptor coactivator 1 (Homo sapiens, UniProt P37231); assay: (§1) TR-FRET dose response biochemical High Throughput Screening assay for agonists of the steroid receptor coactivator 1 (SRC-1) recruitment by the peroxisome proliferator-activated receptor gamma (PPAR gamma): non-selective agonists. [Related pubchem assays (depositor defined):AID1300, AID1808, AID504735, AID631]; type: protein assay
[4] = target: T1, Rac GTPase-activating protein 1 (Homo sapiens, UniProt Q9H0H5); assay: MgcRacGAP GTPase-activating activity inhibitors, confirmation, biochemical, ADP Hunter fluorescence, primary and confirmatory (AID 624330); type: functional
T1 sequence (Q9H0H5 whole entry): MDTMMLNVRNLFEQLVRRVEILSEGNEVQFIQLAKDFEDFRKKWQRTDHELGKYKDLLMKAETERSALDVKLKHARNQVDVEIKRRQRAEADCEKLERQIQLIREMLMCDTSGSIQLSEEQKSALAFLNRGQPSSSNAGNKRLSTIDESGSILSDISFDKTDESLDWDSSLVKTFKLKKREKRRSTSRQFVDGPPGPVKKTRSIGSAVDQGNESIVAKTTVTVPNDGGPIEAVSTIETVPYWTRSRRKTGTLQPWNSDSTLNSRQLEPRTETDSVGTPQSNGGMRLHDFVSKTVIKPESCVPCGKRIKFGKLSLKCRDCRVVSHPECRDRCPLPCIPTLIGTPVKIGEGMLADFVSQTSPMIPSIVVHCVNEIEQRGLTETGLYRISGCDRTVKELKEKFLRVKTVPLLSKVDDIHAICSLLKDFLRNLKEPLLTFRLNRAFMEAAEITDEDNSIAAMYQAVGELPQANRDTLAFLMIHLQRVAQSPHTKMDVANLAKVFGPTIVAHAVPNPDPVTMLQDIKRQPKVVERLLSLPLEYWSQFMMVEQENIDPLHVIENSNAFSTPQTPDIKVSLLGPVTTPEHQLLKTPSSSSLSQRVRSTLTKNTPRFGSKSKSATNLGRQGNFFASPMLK

[5] = target: Peroxisome proliferator-activated receptor gamma/Nuclear receptor coactivator 3 (Homo sapiens, UniProt P37231); assay: as §1, with “3 (SRC-3)” for “1 (SRC-1)”, “assays: 1301 (Confirmation screen.), 1048 (Primary screen.)]” for “assays (depositor defined):AID1300, AID1808, AID504735, AID631]”; type: functional
Sequence of Peroxisome proliferator-activated receptor gamma/Nuclear receptor coactivator 3 (P37231 whole entry): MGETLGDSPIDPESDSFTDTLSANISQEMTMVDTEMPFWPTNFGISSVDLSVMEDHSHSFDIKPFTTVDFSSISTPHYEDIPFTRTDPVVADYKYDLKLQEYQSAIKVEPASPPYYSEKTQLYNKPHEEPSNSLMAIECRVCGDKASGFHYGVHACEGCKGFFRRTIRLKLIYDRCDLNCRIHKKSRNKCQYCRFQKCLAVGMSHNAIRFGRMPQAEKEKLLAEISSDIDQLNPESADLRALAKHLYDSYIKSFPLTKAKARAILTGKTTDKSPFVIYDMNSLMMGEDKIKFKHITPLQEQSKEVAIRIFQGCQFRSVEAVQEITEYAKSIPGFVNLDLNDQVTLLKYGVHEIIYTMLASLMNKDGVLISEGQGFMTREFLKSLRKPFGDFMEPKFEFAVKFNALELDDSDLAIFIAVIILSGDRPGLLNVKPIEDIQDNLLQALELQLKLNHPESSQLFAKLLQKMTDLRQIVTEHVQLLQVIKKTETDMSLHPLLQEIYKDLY
Sequence of Peroxisome proliferator-activated receptor gamma/Nuclear receptor coactivator 3 (Q9Y6Q9 whole entry, further chain): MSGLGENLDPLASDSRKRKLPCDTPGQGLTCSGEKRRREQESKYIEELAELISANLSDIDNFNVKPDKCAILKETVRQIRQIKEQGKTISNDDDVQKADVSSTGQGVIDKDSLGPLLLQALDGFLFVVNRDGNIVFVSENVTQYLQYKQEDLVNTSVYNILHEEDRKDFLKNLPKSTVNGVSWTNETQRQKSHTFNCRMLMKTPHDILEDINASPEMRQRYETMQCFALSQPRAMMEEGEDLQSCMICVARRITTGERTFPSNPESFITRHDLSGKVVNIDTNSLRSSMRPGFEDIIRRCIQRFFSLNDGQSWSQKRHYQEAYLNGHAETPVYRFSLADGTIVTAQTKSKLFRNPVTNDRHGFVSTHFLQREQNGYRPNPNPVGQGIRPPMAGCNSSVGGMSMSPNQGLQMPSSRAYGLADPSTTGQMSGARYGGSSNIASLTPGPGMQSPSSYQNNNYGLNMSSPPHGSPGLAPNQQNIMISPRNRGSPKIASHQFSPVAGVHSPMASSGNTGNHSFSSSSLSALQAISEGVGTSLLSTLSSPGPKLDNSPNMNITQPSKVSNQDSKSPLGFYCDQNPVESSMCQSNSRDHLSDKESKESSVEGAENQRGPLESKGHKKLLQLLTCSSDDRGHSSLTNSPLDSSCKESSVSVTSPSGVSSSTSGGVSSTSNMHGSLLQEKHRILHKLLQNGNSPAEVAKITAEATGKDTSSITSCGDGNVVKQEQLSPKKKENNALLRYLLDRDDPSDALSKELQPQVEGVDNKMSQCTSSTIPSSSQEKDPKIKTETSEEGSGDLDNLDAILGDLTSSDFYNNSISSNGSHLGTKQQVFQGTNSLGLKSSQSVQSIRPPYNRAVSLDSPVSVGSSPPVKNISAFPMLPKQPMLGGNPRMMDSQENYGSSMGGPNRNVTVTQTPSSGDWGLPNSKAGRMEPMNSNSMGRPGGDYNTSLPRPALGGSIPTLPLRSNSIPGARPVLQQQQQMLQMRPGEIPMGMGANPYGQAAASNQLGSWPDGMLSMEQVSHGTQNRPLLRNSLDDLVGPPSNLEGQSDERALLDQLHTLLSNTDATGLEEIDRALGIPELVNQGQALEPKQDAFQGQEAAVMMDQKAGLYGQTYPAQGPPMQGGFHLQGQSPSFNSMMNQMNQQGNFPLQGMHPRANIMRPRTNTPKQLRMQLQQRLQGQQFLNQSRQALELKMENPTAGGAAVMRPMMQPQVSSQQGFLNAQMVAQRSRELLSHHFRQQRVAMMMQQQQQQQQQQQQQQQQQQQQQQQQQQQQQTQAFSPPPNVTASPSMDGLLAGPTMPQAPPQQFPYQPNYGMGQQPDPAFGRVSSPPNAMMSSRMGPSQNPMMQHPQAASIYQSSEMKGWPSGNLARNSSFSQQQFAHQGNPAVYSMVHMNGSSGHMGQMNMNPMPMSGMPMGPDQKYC

[6] = target: Peroxisome proliferator-activated receptor gamma/Nuclear receptor coactivator 2 (Homo sapiens, UniProt P37231); assay: TR-FRET dose response biochemical High Throughput Screening assay for agonists of the steroid receptor coactivator 2 (SRC-2) recruitment by the peroxisome proliferator-activated receptor gamma (PPAR gamma): non-selective agonists. [Related pubchem assays: 1297, 1032 ]; type: functional
Sequence of Peroxisome proliferator-activated receptor gamma/Nuclear receptor coactivator 2 (P37231 whole entry): as the sequence (P37231 whole entry) above
Sequence of Peroxisome proliferator-activated receptor gamma/Nuclear receptor coactivator 2 (Q15596 whole entry, further chain): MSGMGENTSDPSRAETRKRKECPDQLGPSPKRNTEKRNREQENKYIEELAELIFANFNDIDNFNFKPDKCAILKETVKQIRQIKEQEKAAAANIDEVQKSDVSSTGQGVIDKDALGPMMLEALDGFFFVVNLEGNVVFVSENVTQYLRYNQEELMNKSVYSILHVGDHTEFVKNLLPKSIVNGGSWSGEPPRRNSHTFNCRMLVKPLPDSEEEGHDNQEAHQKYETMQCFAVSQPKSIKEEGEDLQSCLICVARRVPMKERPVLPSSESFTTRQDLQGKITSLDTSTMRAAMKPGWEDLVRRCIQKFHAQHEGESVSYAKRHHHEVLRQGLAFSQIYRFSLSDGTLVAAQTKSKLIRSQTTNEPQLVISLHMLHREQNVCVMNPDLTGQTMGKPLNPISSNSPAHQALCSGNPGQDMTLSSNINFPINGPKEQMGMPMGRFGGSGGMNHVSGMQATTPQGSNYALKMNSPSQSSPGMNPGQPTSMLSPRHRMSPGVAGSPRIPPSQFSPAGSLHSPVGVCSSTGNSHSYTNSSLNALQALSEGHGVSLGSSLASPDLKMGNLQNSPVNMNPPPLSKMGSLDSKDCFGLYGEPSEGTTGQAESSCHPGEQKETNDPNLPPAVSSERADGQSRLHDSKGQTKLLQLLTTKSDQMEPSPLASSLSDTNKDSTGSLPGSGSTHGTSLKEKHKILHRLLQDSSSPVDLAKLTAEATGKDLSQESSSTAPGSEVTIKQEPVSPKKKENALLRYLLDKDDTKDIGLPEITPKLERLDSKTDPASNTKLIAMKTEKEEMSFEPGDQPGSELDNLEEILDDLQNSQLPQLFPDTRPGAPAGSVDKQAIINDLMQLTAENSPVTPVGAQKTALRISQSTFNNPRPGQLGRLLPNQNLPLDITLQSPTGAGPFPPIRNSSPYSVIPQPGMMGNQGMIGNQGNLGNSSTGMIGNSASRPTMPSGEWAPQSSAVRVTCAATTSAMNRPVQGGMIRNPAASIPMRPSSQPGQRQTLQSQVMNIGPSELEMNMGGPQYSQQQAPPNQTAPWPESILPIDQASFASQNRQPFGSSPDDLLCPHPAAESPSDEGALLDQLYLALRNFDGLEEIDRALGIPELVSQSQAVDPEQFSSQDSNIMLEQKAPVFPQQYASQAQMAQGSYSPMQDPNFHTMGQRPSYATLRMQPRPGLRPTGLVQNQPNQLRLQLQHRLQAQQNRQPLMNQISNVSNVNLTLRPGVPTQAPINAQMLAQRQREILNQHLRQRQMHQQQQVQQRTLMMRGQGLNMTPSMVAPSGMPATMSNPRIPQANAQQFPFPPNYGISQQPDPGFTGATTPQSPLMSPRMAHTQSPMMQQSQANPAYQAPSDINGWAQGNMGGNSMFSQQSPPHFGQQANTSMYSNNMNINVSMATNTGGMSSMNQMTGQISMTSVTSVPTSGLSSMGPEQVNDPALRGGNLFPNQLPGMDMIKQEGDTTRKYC

[7] = Counterscreen for AddAB inhibitors: absorbance-based bacterial cell-based high throughput dose response assay for inhibitors of bacterial viability. [Related pubchem assays (depositor defined):AID435030, AID449728, AID449731, AID488942, AID488955, AID488956]; type: functional
Exodeoxyribonuclease V = target: T2, Exodeoxyribonuclease V (Escherichia coli (strain K12), UniProt P04993+P07648+P08394); assay: E. coli RecBCD inhibitors, dose response, counter-screen for AddAB inhibitor project, absorbance, V66 E. coli, mutant T4 phage (AID 492957); type: functional, cell-based, Escherichia coli str. K-12 substr. MG1655
T2 sequence (P04993 whole entry): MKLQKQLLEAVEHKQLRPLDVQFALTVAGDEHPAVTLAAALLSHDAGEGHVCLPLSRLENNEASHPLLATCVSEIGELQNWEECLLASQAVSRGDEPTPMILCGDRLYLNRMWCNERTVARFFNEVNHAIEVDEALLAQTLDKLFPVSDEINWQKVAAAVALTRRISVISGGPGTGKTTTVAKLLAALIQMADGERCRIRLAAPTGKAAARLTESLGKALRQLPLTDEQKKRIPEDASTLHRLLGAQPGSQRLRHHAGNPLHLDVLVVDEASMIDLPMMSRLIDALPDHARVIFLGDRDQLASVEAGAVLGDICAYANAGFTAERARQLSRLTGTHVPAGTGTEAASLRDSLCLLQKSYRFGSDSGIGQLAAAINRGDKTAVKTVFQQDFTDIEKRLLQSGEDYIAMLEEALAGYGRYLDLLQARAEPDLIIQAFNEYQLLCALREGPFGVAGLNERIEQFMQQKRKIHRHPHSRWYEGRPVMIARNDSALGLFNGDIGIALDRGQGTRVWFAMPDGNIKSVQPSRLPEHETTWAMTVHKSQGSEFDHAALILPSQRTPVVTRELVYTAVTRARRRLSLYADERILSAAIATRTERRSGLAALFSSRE
T2 sequence (P07648 whole entry): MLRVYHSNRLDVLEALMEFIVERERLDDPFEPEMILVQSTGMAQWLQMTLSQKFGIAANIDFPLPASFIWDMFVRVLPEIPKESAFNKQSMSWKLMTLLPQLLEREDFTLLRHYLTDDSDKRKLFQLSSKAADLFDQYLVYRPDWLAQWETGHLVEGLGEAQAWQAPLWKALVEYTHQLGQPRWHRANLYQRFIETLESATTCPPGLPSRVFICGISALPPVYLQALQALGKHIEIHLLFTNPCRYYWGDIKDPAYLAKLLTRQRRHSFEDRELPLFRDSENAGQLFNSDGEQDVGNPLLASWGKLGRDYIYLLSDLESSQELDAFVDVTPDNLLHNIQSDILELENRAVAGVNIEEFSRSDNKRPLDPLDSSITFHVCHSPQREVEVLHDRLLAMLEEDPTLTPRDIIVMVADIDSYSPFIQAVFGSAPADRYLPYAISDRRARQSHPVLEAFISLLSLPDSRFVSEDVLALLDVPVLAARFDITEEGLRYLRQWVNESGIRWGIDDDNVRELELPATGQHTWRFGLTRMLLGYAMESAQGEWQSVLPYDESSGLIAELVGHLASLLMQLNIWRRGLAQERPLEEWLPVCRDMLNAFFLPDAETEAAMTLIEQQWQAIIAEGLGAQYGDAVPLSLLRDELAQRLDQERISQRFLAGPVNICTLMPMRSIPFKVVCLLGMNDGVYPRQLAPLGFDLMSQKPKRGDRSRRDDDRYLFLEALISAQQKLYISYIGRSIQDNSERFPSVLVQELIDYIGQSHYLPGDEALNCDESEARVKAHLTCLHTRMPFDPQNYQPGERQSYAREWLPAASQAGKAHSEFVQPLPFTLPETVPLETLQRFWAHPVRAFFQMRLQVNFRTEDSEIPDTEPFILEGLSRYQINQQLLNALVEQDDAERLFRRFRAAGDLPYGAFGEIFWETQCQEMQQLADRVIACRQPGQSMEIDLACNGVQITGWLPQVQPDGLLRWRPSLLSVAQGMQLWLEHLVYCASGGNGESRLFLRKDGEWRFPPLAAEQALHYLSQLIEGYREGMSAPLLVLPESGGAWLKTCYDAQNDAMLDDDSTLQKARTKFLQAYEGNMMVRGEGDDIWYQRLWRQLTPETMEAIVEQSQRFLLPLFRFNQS
T2 sequence (P08394 whole entry): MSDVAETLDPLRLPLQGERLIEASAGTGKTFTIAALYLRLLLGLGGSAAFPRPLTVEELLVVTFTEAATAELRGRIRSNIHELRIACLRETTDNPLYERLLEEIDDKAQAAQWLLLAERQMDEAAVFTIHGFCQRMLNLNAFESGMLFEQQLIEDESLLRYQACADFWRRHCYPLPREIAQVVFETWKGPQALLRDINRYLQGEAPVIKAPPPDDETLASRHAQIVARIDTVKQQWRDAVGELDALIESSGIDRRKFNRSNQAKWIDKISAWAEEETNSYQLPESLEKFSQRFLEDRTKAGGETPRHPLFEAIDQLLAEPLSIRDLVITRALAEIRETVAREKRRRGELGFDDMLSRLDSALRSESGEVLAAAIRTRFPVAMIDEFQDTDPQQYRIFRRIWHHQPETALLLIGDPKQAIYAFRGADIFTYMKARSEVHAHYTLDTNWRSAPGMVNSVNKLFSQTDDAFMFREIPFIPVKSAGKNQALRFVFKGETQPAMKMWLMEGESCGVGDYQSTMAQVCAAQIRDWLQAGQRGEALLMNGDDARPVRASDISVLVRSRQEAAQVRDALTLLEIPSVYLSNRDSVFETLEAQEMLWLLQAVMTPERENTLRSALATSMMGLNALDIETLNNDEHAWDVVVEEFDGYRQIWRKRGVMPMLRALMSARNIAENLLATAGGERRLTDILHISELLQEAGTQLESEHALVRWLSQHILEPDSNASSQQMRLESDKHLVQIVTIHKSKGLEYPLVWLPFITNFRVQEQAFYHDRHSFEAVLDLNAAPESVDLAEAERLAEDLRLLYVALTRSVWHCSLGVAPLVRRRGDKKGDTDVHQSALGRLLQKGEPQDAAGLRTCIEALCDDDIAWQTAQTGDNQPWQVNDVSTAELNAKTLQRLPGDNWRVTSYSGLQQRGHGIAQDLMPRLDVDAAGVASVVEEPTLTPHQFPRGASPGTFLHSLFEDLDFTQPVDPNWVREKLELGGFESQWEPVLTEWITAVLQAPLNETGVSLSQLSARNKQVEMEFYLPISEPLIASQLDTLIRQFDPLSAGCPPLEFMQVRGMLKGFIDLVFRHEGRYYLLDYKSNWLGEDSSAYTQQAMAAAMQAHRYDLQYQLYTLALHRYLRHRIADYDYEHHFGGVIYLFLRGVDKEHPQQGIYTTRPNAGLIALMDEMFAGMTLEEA

[8] = target: Heat shock protein HSP 90-alpha (Homo sapiens, UniProt P07900); type: functional, organism-based
Beta-galactosidase = Beta-galactosidase (Escherichia coli, UniProt Q8VNN2); type: functional
[9] = target: T3, Kappa-type opioid receptor (Homo sapiens, UniProt P41145); type: functional
T3 sequence (P41145 whole entry): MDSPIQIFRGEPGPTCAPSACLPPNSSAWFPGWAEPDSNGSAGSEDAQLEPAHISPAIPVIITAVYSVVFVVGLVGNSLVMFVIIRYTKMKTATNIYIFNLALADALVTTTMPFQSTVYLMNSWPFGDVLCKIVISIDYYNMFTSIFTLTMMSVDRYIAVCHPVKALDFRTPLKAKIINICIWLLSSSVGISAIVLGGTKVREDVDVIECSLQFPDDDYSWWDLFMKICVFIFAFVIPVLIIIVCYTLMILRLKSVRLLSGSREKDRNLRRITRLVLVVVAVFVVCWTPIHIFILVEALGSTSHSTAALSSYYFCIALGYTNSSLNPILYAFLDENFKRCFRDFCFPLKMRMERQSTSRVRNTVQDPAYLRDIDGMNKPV

BJ = assay: cytotoxicity toward Ras-transformed BJeLR fibroblasts, dose response, cell-based, alamar blue fluorescence, cherrypicked samples (AID 2631); type: functional; details: Homo sapiens;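 also: confirmatory dose-response assay in RAS-dependent BJ fibroblasts engineered with TERT, LT and ST, with cytotoxicity read by fluorescence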
Nonstructural protein 1 = Nonstructural protein 1 (Influenza A virus, UniProt Q194T2); type: functional, Influenza A virus (A/California/07/2009(H1N1))
[10] = target: T3, Kappa-type opioid receptor; type: functional; remark: listed apart in the source
Protein skinhead-1 = target: T4, Protein skinhead-1 (Caenorhabditis elegans, UniProt P34707); type: functional
T4 sequence (P34707 whole entry): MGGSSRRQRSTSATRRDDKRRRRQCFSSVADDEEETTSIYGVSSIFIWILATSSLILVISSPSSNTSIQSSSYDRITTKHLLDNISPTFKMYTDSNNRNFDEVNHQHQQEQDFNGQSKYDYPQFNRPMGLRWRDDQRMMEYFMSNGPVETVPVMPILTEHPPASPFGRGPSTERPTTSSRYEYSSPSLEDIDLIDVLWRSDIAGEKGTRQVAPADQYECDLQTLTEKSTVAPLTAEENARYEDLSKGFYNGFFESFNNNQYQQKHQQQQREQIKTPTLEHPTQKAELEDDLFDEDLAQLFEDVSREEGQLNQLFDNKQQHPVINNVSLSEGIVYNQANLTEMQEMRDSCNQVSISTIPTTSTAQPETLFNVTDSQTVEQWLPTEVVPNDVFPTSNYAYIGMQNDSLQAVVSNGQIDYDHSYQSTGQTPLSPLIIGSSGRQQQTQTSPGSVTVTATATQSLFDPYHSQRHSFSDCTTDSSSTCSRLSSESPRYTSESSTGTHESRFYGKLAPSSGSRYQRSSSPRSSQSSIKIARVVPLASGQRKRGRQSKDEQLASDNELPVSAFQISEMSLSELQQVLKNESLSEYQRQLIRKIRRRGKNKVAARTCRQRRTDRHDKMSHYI

[11] = Luminescence Cell-Based Dose Retest to Confirm Inhibitors of Cancer Stem Cells. [Related pubchem assays (depositor defined):AID2717, AID2721]; type: functional; details: Homo sapiens
SUMO-activating enzyme = SUMO-activating enzyme (Homo sapiens, UniProt Q9UBT2); assay: SUMOylation inhibitor hit validation, confirmation, SUMOylation inhibitor project, biochemical, AlphaScreen (AID 2018); type: functional

Sequence of Polyadenylate-binding protein 1 (P11940 whole entry): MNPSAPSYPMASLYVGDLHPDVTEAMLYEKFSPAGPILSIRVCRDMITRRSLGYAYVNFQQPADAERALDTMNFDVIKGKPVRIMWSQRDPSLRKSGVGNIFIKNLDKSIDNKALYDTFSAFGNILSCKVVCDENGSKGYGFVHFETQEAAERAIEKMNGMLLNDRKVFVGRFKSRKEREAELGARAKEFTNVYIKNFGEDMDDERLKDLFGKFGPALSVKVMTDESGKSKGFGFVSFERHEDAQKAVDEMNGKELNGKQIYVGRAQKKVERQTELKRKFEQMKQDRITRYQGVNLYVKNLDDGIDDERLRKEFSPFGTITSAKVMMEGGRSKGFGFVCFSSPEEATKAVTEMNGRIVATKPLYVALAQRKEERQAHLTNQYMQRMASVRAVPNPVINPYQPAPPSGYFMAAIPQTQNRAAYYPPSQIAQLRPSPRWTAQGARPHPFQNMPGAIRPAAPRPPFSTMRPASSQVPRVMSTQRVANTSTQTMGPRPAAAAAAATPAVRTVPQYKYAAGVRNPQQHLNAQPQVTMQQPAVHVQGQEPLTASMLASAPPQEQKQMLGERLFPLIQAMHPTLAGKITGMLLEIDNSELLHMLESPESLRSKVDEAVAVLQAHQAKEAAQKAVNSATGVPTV

Structure (SMILES)	IC50 [1]	IC50 [2]	EC50 [3]	EC50 [5]	EC50 [6]	other results
O=C(Nc1ccc(Cl)cc1)C1CCN(C(=O)c2cccs2)CC1	> 100 µM (inactive)	> 100 µM (inactive)	–	–	–	–
Clc1cccc(-c2ccc(/C=N/c3ccc(N4CCOCC4)cc3)o2)c1Cl	–	–	49 µM (inactive)	> 79.4 µM (not active)	30.5 µM (not active)	IC50 [4]: 14.5 µM (active)
CCOC(=O)c1cn(CC)c2cc(N3CCOCC3)c(F)cc2c1=O	–	–	–	–	–	IC50 [7]: 45.9 µM (inactive); IC50 (Exodeoxyribonuclease V): > 119 µM (inactive)
O=C(CSc1ncnc2c1oc1ccccc12)NCc1ccco1	–	–	22.6 µM (inactive)	> 79.4 µM (not active)	11.5 µM (not active)	–
C/C(=N\Nc1ncc(Cl)cc1Cl)c1ccccn1	–	–	–	–	–	AC50 [8]: 1.84 µM (active); EC50 (Beta-galactosidase): > 31.5 µM (inactive); IC50 [9]: 3.47 µM (active); EC50 (BJ): 0.0209 µM (active); IC50 (Nonstructural protein 1): 12 µM (active); pIC50 [10]: < 4.49
COc1ccccc1NC(=O)COC(=O)c1ccc(NC(N)=O)cc1	69.4 µM (active)	17.9 µM (active)	–	–	–	–
O=C(CSc1ncnc2c1oc1ccccc12)Nc1ccccc1F	–	–	63.3 µM (inactive)	91.1 µM (not active)	59.2 µM (not active)	–
COc1ccccc1CCNC(=O)CSc1ccc(-c2ccco2)nn1	> 100 µM (inactive)	> 100 µM (inactive)	–	–	–	–
CC(=O)NS(=O)(=O)c1ccc(Nc2ccc([N+](=O)[O-])c3nonc23)cc1	–	–	–	–	–	EC50 (Beta-galactosidase): 18.1 µM (active); IC50 (Protein skinhead-1): 34.7 µM (active); IC50 [9]: 13.9 µM (active); pIC50 [10]: < 4.49
CCc1ccc(NC(=O)C(CC)Sc2nc3cc4c(cc3c(=O)n2Cc2ccco2)OCO4)cc1 (stereo not given)	–	–	–	–	–	AC50 [11]: 8.32 µM (active); IC50 (SUMO-activating enzyme): 48.9 µM (active)
